Literature values in US9700574B2, “Use of secnidazole in treatment of dental infections” (ATHENA PHARMACEUTIQUES SAS, priority 2011, dated 2017).

Legend:
[1] = in vivo
[2] = tested on: tested microorganisms; settings: in vitro; oro-dental gel for the periodontal pocket; Drug Development and Industrial Pharmacy 34:1356-1367, 2008

CC[C@H]1OC(=O)[C@H](C)[C@@H](O[C@H]2C[C@@](C)(OC)[C@@H](O)[C@H](C)O2)[C@H](C)[C@@H](O[C@@H]2O[C@H](C)C[C@H](N(C)C)[C@H]2O)[C@](C)(O)C[C@@H](C)CN(C)[C@H](C)[C@@H](O)[C@]1(C)O [azithromycine]
half-life [1]: about 20 hours

Cc1ncc([N+](=O)[O-])n1CC(C)O (stereo not drawn) [secnidazole, alpha-2-dimethyl-5-nitro-1H-imidazole-1-ethanol]
half-life [1]: about 25 hours
minimal inhibition concentration for the tested microorganisms [2]: 0.125-5 μg of secnidazole per ml of gel
